From PMC12299904, “Purine–Hydrazone Scaffolds as Potential Dual EGFR/HER2 Inhibitors” (Pharmaceuticals, 2025)
Values joined by “and” are separate entries in the source; they are usually repeats but may differ in a detail not shown here. Equal values may be shown once. “Also recorded” adds a separate entry of the source. Read-outs that look alike come from different tables or passages of the source.

Columns and labels:
[1] = test system: A549 cells; assay: In vitro cytotoxicity assay (MTT), A549; conditions: for viability at 10 µM / IC50: Homo sapiens, A549, 48 h; for viability at 10 µM: read-out: percentage of cell viability, A549; for Selectivity index (SI), A549: IC50 against MRC-5/IC50 against A549
Procedure: (§1) The selected cell lines include A549, a lung cancer cell line that is characterized by its high expression of EGFR; SKOV-3, an ovarian cancer cell line, selected for its overexpression of both EGFR and HER2; and the breast cancer cell line (SKBR-3), characterized by HER2 overexpression.
(§2) Cells were passaged regularly at around 80% confluency using […] and maintained in 75 cm^2 flasks at 37 °C in a humidified atmosphere containing 5% CO2.
(§3) Approximately 10 × 10^3 cells were seeded per well of the 96-well plates using drug-free media and incubated for 24 h. […] After 48 h of drug exposure, the supernatant was aspirated, and the cells were washed with 100 μL of PBS. The MTT assay was performed by creating a stock solution of MTT at a concentration of 5 mg/mL in PBS. From this stock, a solution of MTT in the cell culture media was prepared to achieve a final concentration of 0.5 mg/mL. […] The MTT solution was thereafter removed, and the generated formazan crystals were dissolved by adding 100 μL of propanol/DMSO (50:50) per well. Absorbance was measured at 570 nm, and IC50 values for each compound were calculated by comparison against negative untreated controls.

[2] = test system: SKOV-3 cells; assay: In vitro cytotoxicity assay (MTT), SKOV-3; format: cell-based, human; conditions: for viability at 10 µM: SK-OV-3, read-out: percentage of cell viability, SKOV-3; for viability at 10 µM / IC50: 48 h, MTT; for IC50: mean ± SD, three experiments; for Selectivity index (SI), SKOV-3: IC50 against MRC-5/IC50 against SKOV-3
Procedure: as §1, §2, §3

[3] = test system: A549, SKOV-3, A2780, SKBR-3 cells; assay: MTT assay, ranges stated over several cell lines; format: cell-based, human; conditions: Homo sapiens; 10 µM, 48 h; A549 and SKOV-3; read-out: cell viability range for A549 and SKOV-3
Procedure: as §1, §2, §3

[4] = test system: SKBR-3 cells; assay: In vitro cytotoxicity assay (MTT), SKBR-3; format: cell-based, human; conditions: for IC50: MTT, 48 h, mean ± SD, three experiments; for Selectivity index (SI), SKBR-3: IC50 against MRC-5/IC50 against SKBR-3
Procedure: as §1, §2, §3

[5] = test system: A2780 cells; assay: In vitro cytotoxicity assay (MTT), A2780; format: cell-based; conditions: Homo sapiens, 48 h, read-out: percentage of cell viability, A2780
[6] = In vitro cytotoxicity assay (MTT), normal cell line MRC-5; format: cell-based; conditions: MRC-5 normal embryonic lung cells, normal human embryonic lung cell line, mean ± SD
Procedure: as §2, §3

[7] = target: T1, EGFR (Homo sapiens, UniProt P00533); assay: In vitro enzyme inhibition assay, EGFR Kinase Assay Kit (BPS Bioscience); format: biochemical; conditions: three independent experiments; read-out: Protein Kinase Inhibition IC50, EGFR
T1 construct: purchased BPS Bioscience 40321
T1 sequence (P00533 25-1210): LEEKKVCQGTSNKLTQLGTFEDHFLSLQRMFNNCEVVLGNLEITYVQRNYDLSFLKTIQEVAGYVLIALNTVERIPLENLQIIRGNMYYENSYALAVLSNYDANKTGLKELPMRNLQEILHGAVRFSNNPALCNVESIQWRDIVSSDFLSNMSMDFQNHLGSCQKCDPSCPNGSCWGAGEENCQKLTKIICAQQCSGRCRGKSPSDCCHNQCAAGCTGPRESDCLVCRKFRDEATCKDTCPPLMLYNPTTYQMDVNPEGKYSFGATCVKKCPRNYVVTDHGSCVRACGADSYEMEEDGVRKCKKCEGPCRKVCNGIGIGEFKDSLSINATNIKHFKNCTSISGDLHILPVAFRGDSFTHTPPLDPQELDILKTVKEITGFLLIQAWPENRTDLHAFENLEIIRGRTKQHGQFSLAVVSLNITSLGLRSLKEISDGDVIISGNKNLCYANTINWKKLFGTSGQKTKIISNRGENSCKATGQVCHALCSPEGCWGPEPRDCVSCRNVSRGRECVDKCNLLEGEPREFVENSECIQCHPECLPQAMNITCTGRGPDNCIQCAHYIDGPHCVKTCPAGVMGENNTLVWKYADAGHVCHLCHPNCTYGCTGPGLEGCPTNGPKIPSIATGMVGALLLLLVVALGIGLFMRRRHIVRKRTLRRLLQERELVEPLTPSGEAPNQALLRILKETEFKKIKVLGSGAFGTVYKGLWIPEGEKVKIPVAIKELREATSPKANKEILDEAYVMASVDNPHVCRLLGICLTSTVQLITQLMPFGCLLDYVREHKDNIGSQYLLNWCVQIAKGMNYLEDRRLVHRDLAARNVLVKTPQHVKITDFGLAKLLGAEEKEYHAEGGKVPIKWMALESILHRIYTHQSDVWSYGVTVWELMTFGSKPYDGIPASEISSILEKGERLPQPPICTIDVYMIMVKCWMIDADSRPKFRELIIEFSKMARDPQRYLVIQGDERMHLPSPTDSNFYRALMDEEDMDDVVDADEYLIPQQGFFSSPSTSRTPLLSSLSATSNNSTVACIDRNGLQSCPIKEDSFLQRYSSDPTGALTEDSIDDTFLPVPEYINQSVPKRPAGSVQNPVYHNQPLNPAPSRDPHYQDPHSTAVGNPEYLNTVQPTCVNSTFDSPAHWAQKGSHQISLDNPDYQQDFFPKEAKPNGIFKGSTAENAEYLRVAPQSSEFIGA

[8] = target: T2, HER2 (Homo sapiens, UniProt P04626); assay: In vitro enzyme inhibition assay, HER2 Kinase Assay Kit (BPS Bioscience); format: biochemical; conditions: three independent experiments; read-out: Protein Kinase Inhibition IC50, HER2
T2 construct: purchased BPS Bioscience 40721
T2 sequence (P04626 23-1255): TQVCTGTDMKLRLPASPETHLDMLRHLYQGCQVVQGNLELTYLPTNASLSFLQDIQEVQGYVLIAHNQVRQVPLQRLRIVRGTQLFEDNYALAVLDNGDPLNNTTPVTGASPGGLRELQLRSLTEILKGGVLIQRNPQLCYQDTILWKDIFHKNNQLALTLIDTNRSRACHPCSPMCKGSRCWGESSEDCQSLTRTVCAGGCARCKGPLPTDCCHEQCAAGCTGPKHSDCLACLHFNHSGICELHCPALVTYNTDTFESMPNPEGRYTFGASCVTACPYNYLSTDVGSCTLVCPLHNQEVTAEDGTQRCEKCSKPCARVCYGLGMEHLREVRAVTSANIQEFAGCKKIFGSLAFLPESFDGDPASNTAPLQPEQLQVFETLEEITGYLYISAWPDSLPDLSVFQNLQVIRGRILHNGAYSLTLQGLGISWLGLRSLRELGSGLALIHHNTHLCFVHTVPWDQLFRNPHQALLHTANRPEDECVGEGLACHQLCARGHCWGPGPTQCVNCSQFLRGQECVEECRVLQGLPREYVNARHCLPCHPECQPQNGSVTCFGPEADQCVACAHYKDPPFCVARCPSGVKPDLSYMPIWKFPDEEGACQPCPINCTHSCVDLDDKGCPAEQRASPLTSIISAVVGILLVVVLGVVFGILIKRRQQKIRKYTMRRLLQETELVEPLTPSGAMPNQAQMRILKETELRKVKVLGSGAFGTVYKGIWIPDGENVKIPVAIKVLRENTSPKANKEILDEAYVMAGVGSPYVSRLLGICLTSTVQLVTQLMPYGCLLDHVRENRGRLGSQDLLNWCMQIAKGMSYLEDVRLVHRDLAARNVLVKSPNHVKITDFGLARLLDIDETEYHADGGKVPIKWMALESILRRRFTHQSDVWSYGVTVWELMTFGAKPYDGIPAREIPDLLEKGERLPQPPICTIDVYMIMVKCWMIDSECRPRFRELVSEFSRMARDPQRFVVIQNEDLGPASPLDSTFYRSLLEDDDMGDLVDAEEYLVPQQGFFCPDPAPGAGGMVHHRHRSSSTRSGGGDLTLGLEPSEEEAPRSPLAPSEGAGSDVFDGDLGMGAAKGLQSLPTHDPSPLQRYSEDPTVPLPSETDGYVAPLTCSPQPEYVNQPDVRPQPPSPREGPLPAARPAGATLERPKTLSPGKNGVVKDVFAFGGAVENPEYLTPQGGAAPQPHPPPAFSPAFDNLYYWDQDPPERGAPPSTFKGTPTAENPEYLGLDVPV

[9] = test system: A549 cells; assay: Cell cycle assay (PI, flow cytometry); format: cell-based, human; conditions: A549, IC50 concentration; for Cell cycle comment / DNA Content (%) %G0–G1 / DNA Content (%) %G2/M / DNA Content (%) %S: 24 h; for DNA Content (%) %G0–G1 / DNA Content (%) %G2/M / DNA Content (%) %S: mean ± SD; for Cell Cycle Distribution Index (CDI): CDI = (G2/M + S)/(G0–G1)
Procedure: In a flat-bottom 6-well plate, 3 × 10^5 A549 cells were seeded per well and incubated at 37 °C for 24 h to allow attachment. […] Following a 24 h incubation period, the supernatant was removed by suction, and adherent cells were washed with PBS and collected with trypsin. Additionally, negative control (untreated) samples were also prepared. The cells were resuspended in 2 mL of 80% v/v of cold methanol for 45 min to achieve fixation. After centrifugation, the methanol was discarded, and the resulting cell pellets were washed and stained at room temperature for 30 min in the dark using propidium iodide PI (10% v/v of a 1 mg/mL stock solution in PBS) and RNAse (15% v/v of a 1 mg/mL stock solution in PBS). The cells were analyzed using flow cytometry, reading histograms in the red channel adjusted to PI (Em. 617 nm, Ex. 535 nm).

[10] = test system: A549 cells; assay: Apoptosis analysis (Annexin V-FITC/PI, flow cytometry); format: cell-based, human; conditions: A549, IC50 concentration, 24 h; for Apoptosis, Early / Apoptosis, Late / Necrosis: mean ± SD, % printed in text only
Procedure: Briefly, in flat-bottom 6-well plates, a total of 3 × 10^5 A549 cells were seeded per well and maintained at 37 °C for 24 h in a CO2 humidified atmosphere. Next, the cells were subjected to treatment with the equipotent concentration (1xIC50) of the tested compounds in the cell culture media. Following a 24 h incubation period, the supernatant was removed by suction, and attached cells were washed with PBS and collected using trypsin. Following the quenching of trypsin with culture media, the cells were resuspended as a single cell suspension in Annexin V binding buffer with 1% (v/v) propidium iodide and 1% (v/v) Annexin V-FITC. Negative (untreated) control samples were also included in the experiment. The samples were analyzed using flow cytometry, reading PI at Em. 617 nm, Ex. 535 nm, and Annexin-V-FITC at Em. 520 nm, Ex. 488 nm, while collecting 20,000 events/sample.

[11] = read-out: Cytotoxicity (IC50), A549, MTT, 48 h, mean ± SD, three experiments

In the case of `O=C(N/N=C/c1ccc([N+](=O)[O-])cc1)c1ccc(Nc2ncnc3nc[nH]c23)cc1` [15a, (E)-4-((7H-Purin-6-yl)amino)-N′-(4-nitrobenzylidene)benzohydrazide], the viability at 10 µM [1] is reported as 49% and the viability at 10 µM ([2]; Homo sapiens) is reported as 44%.

Compound `COc1cc(C)c(/C=N/NC(=O)c2ccc(Nc3ncnc4c3ncn4C3CCCC3)cc2)cc1C` [18b, (E)-4-((9-cyclopentyl-9H-purin-6-yl)amino)-N′-(4-methoxy-2,5-dimethylbenzylidene) benzohydrazide] has a viability at 10 µM [3] of 81 to 100%.

Work on `O=C(N/N=C/c1cccc(-c2ccccc2)c1)c1ccc(Nc2ncnc3c2ncn3C2CCCC2)cc1` [19b, (E)-N′-((1,1′-biphenyl)-3-ylmethylene)-4-((9-cyclopentyl-9H-purin-6-yl)amino)benzohydrazide] yielded an IC50 [1, 11] of 1840 ± 82 nM, an IC50 ([2]; Homo sapiens, SK-OV-3, 48 h) of 15600 ± 1480 nM and an IC50 ([4]; Homo sapiens, SK-BR-3, 48 h) of 3.2 ± 0.899 µM.

With `C#Cc1cccc(Nc2ncnc3cc(OCCOC)c(OCCOC)cc23)c1` [Erlotinib, erlotinib, reference compound] the IC50 ([1]; read-out: Cytotoxicity (IC50), A549) was 2420 ± 784 nM, the viability at 10 µM [1] was 48% and the IC50 ([2]; Homo sapiens, SK-OV-3, 48 h) was 5180 ± 1200 nM. It also gave a viability at 10 µM ([2]; Homo sapiens) of 44%, a viability at 10 µM [5] of 39% and an IC50 ([4]; Homo sapiens, SK-BR-3, 48 h) of 5.12 ± 0.879 µM. The IC50 at 48 h [6] was 19.36 ± 0.138 µM.

With `NS(=O)(=O)c1cc(/C=N/NC(=O)c2ccc(Nc3ncnc4c3ncn4C3CCCC3)cc2)ccc1F` [22b, (E)-5-((2-(4-((9-cyclopentyl-9H-purin-6-yl)amino)benzoyl)hydrazineylidene)methyl)-2-fluorobenzenesulfonamide] the IC50 [1, 11] was 3950 ± 615 nM, the viability at 10 µM [1] was 35% and the “Selectivity index (SI), A549” value [1] was 15.34. For the same compound, the IC50 ([2]; Homo sapiens, SK-OV-3, 48 h) was 1540 ± 470 nM, the viability at 10 µM ([2]; Homo sapiens) was 31% and the “Selectivity index (SI), SKOV-3” value [2] was 39.32. For the same compound, the IC50 [2] was 1540 ± 470 nM, the viability at 10 µM [5] was 47% and the IC50 ([4]; Homo sapiens, SK-BR-3, 48 h) was 3.8 ± 1.4 µM. For the same compound, the “Selectivity index (SI), SKBR-3” value [4] was 15.94, the IC50 [4] was 3.8 ± 1.4 µM and the IC50 at 48 h [6] was 60.59 ± 0.329 µM. The IC50 [7] was 70 nM and 74 nM, the IC50 [8] was 30 nM and 33 nM and the Cell cycle comment [9] was “arrests the cell cycle at the G1 phase; also recorded: Cell cycle arrest@G1”. The “DNA Content (%) %G0–G1” value [9] was 77.0% and 77.04% and 77.04 ± 1.85 %, the “DNA Content (%) %G2/M” value [9] was 4.4% and 4.35% and 4.35 ± 0.29 % and the “DNA Content (%) %S” value [9] was 18.6% and 18.60 ± 2.00 %. The “Cell Cycle Distribution Index (CDI)” value [9] was 0.29, the “percentage of live cells” value [10] was 72.51% and the “Apoptosis, Early” value [10] was 5.92% and 5.92 ± 0.74 %. For the same compound, the “Apoptosis, Late” value [10] was 18.21% and 18.21 ± 0.12 % and the Necrosis [10] was 3.35 ± 0.49%.

In the case of `O=C(N/N=C/c1cccc(-c2ccccc2)c1)c1ccc(Nc2ncnc3nc[nH]c23)cc1` [19a, (E)-4-((7H-purin-6-yl)amino)-N′-([1,1′-biphenyl]-3-ylmethylene)benzohydrazide], the IC50 [1, 11] is reported as 810 ± 139 nM, the viability at 10 µM [1] is reported as 39% and the “Selectivity index (SI), A549” value [1] is reported as 64.6. For the same compound, the IC50 ([2]; Homo sapiens, SK-OV-3, 48 h) was 2190 ± 160 nM, the viability at 10 µM ([2]; Homo sapiens) was 43% and the “Selectivity index (SI), SKOV-3” value [2] was 23.88. It also gave an IC50 [2] of 2190 ± 164 nM, a viability at 10 µM [5] of 18% and an IC50 ([4]; Homo sapiens, SK-BR-3, 48 h) of 1.41 µM. The “Selectivity index (SI), SKBR-3” value [4] was 37.03, the IC50 [4] was 1.41 ± 0.362 µM and the IC50 at 48 h [6] was 52.36 ± 0.283 µM. The IC50 [7] was 80 nM and 81 nM, the IC50 [8] was 59 ± 2 nM and the Cell cycle comment [9] was “cell cycle arrest at the G1 phase”. The “DNA Content (%) %G0–G1” value [9] was 86.9% and 86.88% and 86.88 ± 0.95 %, the “DNA Content (%) %G2/M” value [9] was 3.9% and 3.90 ± 1.22 % and the “DNA Content (%) %S” value [9] was 9.2% and 9.21% and 9.21 ± 1.43 %. The “Cell Cycle Distribution Index (CDI)” value [9] was 0.15, the “percentage of live cells” value [10] was 62.3% and the “Apoptosis, Early” value [10] was 9.72% and 9.72 ± 1.06 %. For the same compound, the “Apoptosis, Late” value [10] was 23.13% and 23.13 ± 0.73 % and the Necrosis [10] was 4.84 ± 0.34%.

In the case of `COc1cccc(/C=N/NC(=O)c2ccc(Nc3ncnc4nc[nH]c34)cc2)c1` [12a, (E)-4-((7H-Purin-6-yl)amino)-N′-(3-methoxybenzylidene)benzohydrazide], the viability at 10 µM [1] is reported as 75%.

Compound `O=C(N/N=C/c1cccc2ccccc12)c1ccc(Nc2ncnc3nc[nH]c23)cc1` [23a, (E)-4-((7H-Purin-6-yl)amino)-N′-(naphthalen-1-ylmethylene) benzohydrazide] has a viability at 10 µM [1] of 74% and a viability at 10 µM ([2]; Homo sapiens) of 92%.
